Reference: US20070218504A1, “HUMAN LEPTIN-DERIVED POLYPEPTIDES AND USES THEREOF” (UNIVERSITY OF PITTSBURGH, priority 2006, published 2007)

Columns and labels:
human OB-Rb = biological target: T1, human OB-Rb (Homo sapiens, UniProt P48357); experiment: 125I-labeled mouse leptin pre-incubated with human CRP, binding to HEK293 cells stably transfected with human OB-Rb; settings: in the presence of 2 ng/ml mouse leptin
T1 construct: expressed in transfected cells
T1 sequence (P48357 22-1165): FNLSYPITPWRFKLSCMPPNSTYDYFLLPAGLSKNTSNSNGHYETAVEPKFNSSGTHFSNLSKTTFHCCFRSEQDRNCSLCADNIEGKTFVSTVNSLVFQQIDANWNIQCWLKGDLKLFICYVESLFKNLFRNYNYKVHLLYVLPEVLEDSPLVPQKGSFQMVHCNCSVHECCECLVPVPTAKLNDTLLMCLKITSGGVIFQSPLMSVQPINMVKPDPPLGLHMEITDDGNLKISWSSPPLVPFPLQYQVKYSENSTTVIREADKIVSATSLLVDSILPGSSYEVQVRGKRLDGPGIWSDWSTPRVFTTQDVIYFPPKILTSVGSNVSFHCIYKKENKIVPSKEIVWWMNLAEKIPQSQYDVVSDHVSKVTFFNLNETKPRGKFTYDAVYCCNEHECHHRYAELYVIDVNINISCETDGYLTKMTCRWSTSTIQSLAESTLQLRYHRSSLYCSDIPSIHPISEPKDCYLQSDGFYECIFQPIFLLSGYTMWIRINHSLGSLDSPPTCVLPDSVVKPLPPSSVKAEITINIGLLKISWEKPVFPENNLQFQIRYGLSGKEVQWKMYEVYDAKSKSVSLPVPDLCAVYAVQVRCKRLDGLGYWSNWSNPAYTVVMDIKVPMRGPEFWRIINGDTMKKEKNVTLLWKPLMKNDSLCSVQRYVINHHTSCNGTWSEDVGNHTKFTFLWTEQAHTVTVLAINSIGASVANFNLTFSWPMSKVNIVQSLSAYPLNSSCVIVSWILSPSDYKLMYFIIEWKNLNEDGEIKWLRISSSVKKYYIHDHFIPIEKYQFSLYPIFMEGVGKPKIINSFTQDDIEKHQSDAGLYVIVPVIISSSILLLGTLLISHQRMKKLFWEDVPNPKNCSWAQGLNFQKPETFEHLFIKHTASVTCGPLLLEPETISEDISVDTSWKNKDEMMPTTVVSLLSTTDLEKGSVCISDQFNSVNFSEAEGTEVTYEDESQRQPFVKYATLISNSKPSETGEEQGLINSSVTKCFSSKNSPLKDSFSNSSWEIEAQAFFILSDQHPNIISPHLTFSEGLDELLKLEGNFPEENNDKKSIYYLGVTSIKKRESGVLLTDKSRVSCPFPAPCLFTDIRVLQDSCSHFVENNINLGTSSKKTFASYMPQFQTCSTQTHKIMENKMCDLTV
Method: FIG. 4B. Effects of human CRP on mouse leptin. […] The dashed line at the bottom right of the graph indicates ^125I-leptin bound when two thousand fold excess of non-labeled mouse leptin is added.
To examine if CRP binding interferes with the stability of human leptin to bind to its receptors, a HEK293 cell line stably transfected with the long-form human leptin receptor, OB—Rb, was used (17). Human leptin was iodinated with Na^125I using the lodogen method. Briefly, 15 μg of recombinant human leptin in 100 mM Phosphate buffer pH 7.5 were incubated with 1 mCi of carrier-free Na^125I (2200 Ci/mmol) in a glass tube containing 50 μg Iodogen. After 10-minute incubation at room temperature, the reaction was stopped with 100 μl 0.1% trifluoroacetic acid (TFA). The reaction mixture was immediately purified by reverse-phase HPLC. The separation employed a 5-minute isocratic step at 20% eluant B in A, followed by two consecutive 30 min linear gradients from 20 to 50%, then from 50 to 60% eluant B in A (where eluant A is water containing 0.1% TFA and eluant B is acetonitrile containing 0.1% TFA) at a flow rate of 1.5 ml/min. The ^125I-labeled leptin (˜2 ng/ml) was pre-incubated with various concentrations of human CRP in 1 ml of μ-MEM for 1 hour before added to the OBR-expressing HEK293 cells. […]

ob/ob mice = experiment: Intracerebralventricular (i.c.v.) injection of human CRP and leptin in ob/ob mice, food intake and body weight; type: in vivo, mouse; settings: ob/ob mice
CRP = experiment: Leptin's effect on CRP secretion and expression in human hepatocytes (Western, real-time RT-PCR); type: cell-based
Description: Human hepatocytes were isolated from donor livers. Briefly, the livers were perfused in a three-step process. A calcium-free buffer supplemented with EGTA is used to break […] junctions, which is followed by the same perfusion buffer without EGTA. Finally, a calcium-containing buffer supplemented with digestive enzymes (collagenase and DNase) was used. Following digestion, parenchymal hepatocytes were isolated by three steps of low-speed centrifugation. Cells with a viability of at least 85% were plated and cultured in hepatocytes maintenance medium (HMM) (Cambrex BioScience, Walkersville, Md.) supplemented with 10% fetal bovine serum (FBS), 0.1 μM dexamethasone, 0.1 μM insulin, and 50 μg/ml gentamicin on collagen-coated tissue culture dishes for 2-4 hours. The cells were subsequently cultured in the above medium without FBS.
Approximately 24 hours after seeded, the hepatocytes were washed with serum-free HMM supplemented with 0.1 μM dexamethasone and 0.1 μM insulin, and then cultured in the same medium for another 48 hours. Subsequently, the cells were switched to serum-free HMM supplemented with 0.1 μM dexamethasone before stimulated with leptin (NHPP) or rhIL-6 (R&D Systems, Minneapolis, Minn.) for 24 hours or 48 hours. For experiments involving PI3-kinase inhibitors, hepatocytes were pretreated with LY294002 (EMD Biosciences, Calif.) for 1 hour before hormonal stimulation.
Hepatocytes were isolated and treated as described in Example 4. Culture medium was centrifuged to remove detached cells and then heated at 95° C. for 5 minutes in SDS-sample buffer (Boston Bioproducts, Mass.). After separation on 10% SDS polyacrylamide gels, proteins were electro-transferred overnight to nitrocellulose membranes. Pre-blocked using 5% non-fat milk in PBS with 0.5% Tween 20, the membranes were incubated with appropriate primary antibody for 2 hours at room temperature, washed and incubated for 1 hour with a corresponding […] at room temperature. […]
CRP mRNA expression was measured by quantitative real-time RT-PCR. […]

| Substance | IC50 of human CRP for reducing 125I-labeled mouse leptin binding to receptor (human OB-Rb) | effect of i.c.v. human CRP on satiety and weight-reducing effects induced by mouse leptin (ob/ob mice) | effect on CRP gene expression, short treatment (CRP; 6-8 hours) | effect on secreted CRP in the culture medium (CRP; human hepatocytes, physiological leptin concentrations, 24 hours) | effect on human CRP mRNA expression (CRP; real-time PCR) |
| --- | --- | --- | --- | --- | --- |
| human CRP: human C-reactive protein, purified preparation from a commercial source | greater than 64 μg/ml | did not influence |  |  |  |
| human leptin: human recombinant leptin |  |  | did not influence CRP gene expression | dose-dependent positive effect | dosage-dependent effect |
